Experimental data from paper PMC3523701 (Journal of the American Chemical Society, 2012).

Tested on: SRC
Format: binding
Conditions: competitor against photo-probe labeling, Figure S1

SMILES	competition of active site labeling of SRC
Cc1ccc(C(=O)Nc2ccc(CN3CCN(C)CC3)c(C(F)(F)F)c2)cc1C#Cc1cnc2cccnn12 [Ponatinib, reference compound]	able to block active site labeling
CNC(=O)c1cc(Oc2ccc(NC(=O)Nc3cc(C(C)(C)C)nn3-c3ccc4ncccc4c3)c(F)c2)ccn1 [Rebastinib, reference compound]	able to block active site labeling
